“Also recorded” adds a separate entry of the source.
What was measured:
[1] = system: primary human skeletal myotubes (MYOs); assay: IRES screening (Table 28), Gaussia luciferase LNP-oRNA in primary human skeletal myotubes (MYOs); settings: protein expression relative to positive control (SEQ ID NO 3282 = 1)
Source text: (§1) Exemplary constructs included a 5′ enhanced intron element, a 5′ enhanced exon element, a putative IRES, a coding element encoding Gaussia Luciferase, a 3′ enhanced exon element, and a 3′ enhanced intron element.
(§2) Purified oRNA was nanoprecipitated with lipids to form LNP-oRNA constructs. LNPs were formulated first by creating empty lipid nanoparticles using a Precision Nanosystems Ignite instrument with a “NextGen” mixing chamber. Ethanol phase contained Lipid 39 from Table 10b, DSPC, cholesterol, and DMG-PEG 2000 (Avanti Polar Lipids, Inc., Alabaster, AL) at a molar ratio of 45:9:44:2 was combined with 50 mM sodium acetate buffer at pH 4.5. A 3:1 aqueous to ethanol mixing ratio was used. The empty LNPs were then dialyzed in 1 L of 1×PBS and exchanged 2 times over 18 hours. […] A 3:1 aqueous to empty lipid nanoparticle mixing ratio was used. The LNPs final ionizable lipid to RNA phosphate ratio was at 6.0.
(§3) Primary human skeletal myotubes (MYOs), primary human hepatocytes (PHHs), and activated primary human T cells (TCLs) were treated with formulated LNP-oRNA in triplicate. Protein expression in supernatant was assessed by luminescence measurements 48 hours following transfection.
(§4) Total luminescent signal was normalized across replicate plates to control for plate-wide differences between replicates due to flash assay readout timing. Plates with positive controls having <2× signal over background were excluded from analysis. Background was subtracted based on empty wells. Each test well replicate was normalized to its respective plate control and then the replicates were averaged.
(§5) Measured numbers are normalized to a control (caprine kobuvirus IRES, SEQ ID NO: 3282) and represented as a fold change.

[2] = system: primary human hepatocytes (PHHs); assay: IRES screening (Table 28), Gaussia luciferase LNP-oRNA in primary human hepatocytes (PHHs); settings: protein expression relative to positive control (SEQ ID NO 3282 = 1)
Source text: as §1, §2, §3, §4, §5

[3] = system: activated primary human T cells (TCLs); assay: IRES screening (Table 28), Gaussia luciferase LNP-oRNA in activated primary human T cells (TCLs); settings: protein expression relative to positive control (SEQ ID NO 3282 = 1)
Source text: as §1, §2, §3, §4, §5

splenic immune cells = assay: Cre circRNA LNP transfection of splenic immune cells in Ai9 Cre reporter mice (tdTomato); format: in vivo; settings: 0.5 mg/kg Cre circRNA LNP i.v., 48 hr, named by ionizable lipid, 0.5 mg/kg
Experimental: Circular RNAs encoding Cre recombinase (Cre) are encapsulated into lipid nanoparticles as previously described. Female, 6-8 week old B6.Cg-Gt(ROSA)26Sortm9(CAG-tdTomato)Hze/J (Ai9) mice were dosed with lipid nanoparticles at 0.5 mg/kg RNA intravenously. Fluorescent tdTomato protein was transcribed and translated in Ai9 mice upon Cre recombination, meaning circular RNAs have been delivered to and translated in tdTomato+ cells. After 48 hr, mice were euthanized and the spleens were harvested, processed into a single cell suspension, and stained with various fluorophore-conjugated antibodies for immunophenotyping via flow cytometry.
Ai9 mice (B6.Cg-Gt(ROSA)26Sortm9(CAG-tdTomato)Hze/J, female, 6-8 weeks, n=3 per group) were injected i.v. with 0.5 mg/kg Cre circRNA LNPs or PBS. Ai9 mice transcribe and translate the fluorescent reporter tdTomato upon Cre recombination; meaning cells which are tdTomato+ have successfully been transfected with Cre circRNA. […] Flow cytometry was performed using an Attune Nxt Flow Cytometer (Thermo).

Row | SMILES | MYO AVG [Fold Change] [1] | PHH AVG [Fold Change] [2] | TCL AVG [Fold Change] [3] | splenic immune cells expressing tdTomato (splenic immune cells)
1 | CCCCCCCCC(CCCCCC)C(=O)OCCCCCCCCCCCCN(CCCCO)CCCCCCCCCCCCOC(=O)C(CCCCCC)CCCCCCCC (centres unmarked) [Lipid 23] | 0 Fold Change | 0.0008387 Fold Change | 0.002417 Fold Change | –
2 | CCCCCCCCC(CCCCCC)C(=O)OCCCCCCCCCCCCN(CCCO)CCCCCCCCCCCCOC(=O)C(CCCCCC)CCCCCCCC (centres unmarked) [Lipid 38] | 0.07838 Fold Change | 0.2209 Fold Change | 0.02186 Fold Change | –
3 | CCCCCCCCCCCCCCCC(O)C(CO)N(CCCCCCOC(=O)C(CCCCCC)CCCCCCCC)CCCCCCOC(=O)C(CCCCCC)CCCCCCCC (centres unmarked) [Lipid 32] | 0.2163 Fold Change | 0.3276 Fold Change | 0.02974 Fold Change | –
4 | CCCCCCCCCCCCC(CCCCCCCCCC)C(=O)OCCCCCCN(CCCO)CCCCCCOC(=O)C(CCCCCCCCCC)CCCCCCCCCCCC (centres unmarked) [Lipid 44] | 0 Fold Change | 0.01602 Fold Change | 0.01421 Fold Change | –
5 | CCCCCCCCC(CCCCCC)C(=O)OCCCCCCN(CCCCCCOC(=O)C(CCCCCC)CCCCCCCC)CCCC(=O)OCC (centres unmarked) [Lipid 34] | 0.2168 Fold Change | 0.4644 Fold Change | 0.2638 Fold Change | –
6 | CCCCCCC(CCCC)C(=O)OCCCCCCN(CCCO)CCCCCCOC(=O)C(CCCC)CCCCCC (centres unmarked) [Lipid 28] | 0.01764 Fold Change | 0.1221 Fold Change | 0.1126 Fold Change | –
7 | CCCCCCCCC(CCCCCC)COC(=O)CCCCCCCN(CCO)CCCCCCCC(=O)OCC(CCCCCC)CCCCCCCC (centres unmarked) [Lipid 46] | 0.2249 Fold Change | 0.503 Fold Change | 0.2472 Fold Change | –
8 | CCCCCCCCC(CCCCCC)C(=O)OCCCCCCN(CCCCCCOC(=O)C(CCCCCC)CCCCCCCC)CC(O)CO (centres unmarked) [Lipid 30] | 0.1967 Fold Change | 0.3984 Fold Change | 0.373 Fold Change | –
9 | CCCCC(CC)C(=O)OCCCCCCCCCN(CCCO)CCCCCCCCCOC(=O)C(CC)CCCC (centres unmarked) [Lipid 43] | 0.11 Fold Change | 0.456 Fold Change | 0.2866 Fold Change | –
10 | CCCCCCCCC(CCCCCC)C(=O)OCCCCCCCCCN(CCCCO)CCCCCCCCCOC(=O)C(CCCCCC)CCCCCCCC (centres unmarked) [Lipid 22] | 0.009137 Fold Change | 0.0926 Fold Change | 0.0309 Fold Change | –
11 | CCCCCCCCC(CCCCCC)C(=O)OCCCCCCN(CCCCCCOC(=O)C(CCCCCC)CCCCCCCC)CCCCOC(C)=O (centres unmarked) [Lipid 33] | 0.3574 Fold Change | 0.4409 Fold Change | 0.2088 Fold Change | –
12 | CCCCCCCCC(CCCCCC)C(=O)OCCCCCCN(CCCCCCOC(=O)C(CCCCCC)CCCCCCCC)CCCOC (centres unmarked) [Lipid 41] | 0.0004126 Fold Change | 0.01033 Fold Change | 0.02752 Fold Change | –
13 | CCCCCCCCC(CCCCCC)C(=O)OCCCCCCN(CCCCCCOC(=O)C(CCCCCC)CCCCCCCC)CCCn1ccnc1C (centres unmarked) [Lipid 10a-27] | – | – | – | significantly higher myeloid and T cell transfection compared with Lipid 93-S14; also recorded: effective at delivering circular RNAs to many splenic immune cell subsets
14 | CCCCCCCCC(CCCCCC)C(=O)OCCCCCCN(CCCC#N)CCCCCCOC(=O)C(CCCCCC)CCCCCCCC (centres unmarked) [Lipid 35] | 0 Fold Change | 0.005378 Fold Change | 0.004133 Fold Change | –
15 | CCCCCCC(CCCC)C(=O)OCCCCCCN(CCO)CCCCCCOC(=O)C(CCCC)CCCCCC (centres unmarked) [Lipid 29] | 0 Fold Change | 0.008274 Fold Change | 0.01096 Fold Change | –
16 | CCCCCCCCCCCCC(CCCCCCCCCC)C(=O)OCCCCCCN(CCCCO)CCCCCCOC(=O)C(CCCCCCCCCC)CCCCCCCCCCCC (centres unmarked) [Lipid 27] | 0.01866 Fold Change | 0.09892 Fold Change | 0.02442 Fold Change | –
17 | CCCCCCCCC(CCCCCC)C(=O)OCCCCCCN(CCCCCCOC(=O)C(CCCCCC)CCCCCCCC)CCCn1ccnc1 (centres unmarked) [Lipid 10a-26] | – | – | – | significantly higher myeloid and T cell transfection compared with Lipid 93-S14; also recorded: effective at delivering circular RNAs to many splenic immune cell subsets
18 | CCCCCCCCC(CCCCCC)C(=O)OCCCCCCN(CCCCCCOC(=O)C(CCCCCC)CCCCCCCC)CC(O)CC (centres unmarked) [Lipid 40] | 0.199 Fold Change | 0.2391 Fold Change | 0.05108 Fold Change | –
19 | CCCCCCC(CCCC)C(=O)OCCCCCCCCCN(CCCCO)CCCCCCCCCOC(=O)C(CCCC)CCCCCC (centres unmarked) [Lipid 25] | 0.0738 Fold Change | 0.1559 Fold Change | 0.452 Fold Change | –
20 | CCCCCCC(CCCC)C(=O)OCCCCCCN(CCCCO)CCCCCCOC(=O)C(CCCC)CCCCCC (centres unmarked) [Lipid 42] | 0.07198 Fold Change | 0.3425 Fold Change | 0.09322 Fold Change | –
21 | CCCCCCCCC(CCCCCC)C(=O)OCCCCCCN(CCCCCCOC(=O)C(CCCCCC)CCCCCCCC)C(CC)CO (centres unmarked) [Lipid 31] | 0.5881 Fold Change | 0.6943 Fold Change | 0.4863 Fold Change | –
22 | CCCCCCCCC(CCCCCC)COC(=O)CCCCCN(CCCCCC(=O)OCC(CCCCCC)CCCCCCCC)CCCC(=O)OCC (centres unmarked) [Lipid 39] | 0.0002919 Fold Change | 0.003901 Fold Change | 0.003256 Fold Change | –
23 | CCCCCCCCC(CCCCCC)C(=O)OCCCCCCN(CCC#N)CCCCCCOC(=O)C(CCCCCC)CCCCCCCC (centres unmarked) [Lipid 47] | 0.00246 Fold Change | 0.08942 Fold Change | 0.02259 Fold Change | –
24 | CCCCCCCCC(CCCCCC)C(=O)OCCCCCCN(CCCCCCOC(=O)C(CCCCCC)CCCCCCCC)CCCC(=O)OCC (centres unmarked) [Lipid 48] | 0.1303 Fold Change | 0.4247 Fold Change | 0.002803 Fold Change | –
25 | CCCCCCCCCCC(CCCCCCCC)C(=O)OCCCCCCN(CCCCO)CCCCCCOC(=O)C(CCCCCCCC)CCCCCCCCCC (centres unmarked) [Lipid 26] | 0.002759 Fold Change | 0.01252 Fold Change | 0 Fold Change | –
26 | CCCCCCCCCCC(CCCCCCCC)C(=O)OCCCCCCN(CCCO)CCCCCCOC(=O)C(CCCCCCCC)CCCCCCCCCC (centres unmarked) [Lipid 37] | 0.03859 Fold Change | 0.2564 Fold Change | 0.0237 Fold Change | –
27 | CCCCCCCCC(CCCCCC)COC(=O)CCCCCCCCCN(CCCCO)CCCCCCCCCC(=O)OCC(CCCCCC)CCCCCCCC (centres unmarked) [Lipid 21] | 0.02126 Fold Change | 0.1363 Fold Change | 0.0748 Fold Change | –
28 | CCCCCCCCC(CCCCCC)C(=O)OCCCCCCN(CCCCCCOC(=O)C(CCCCCC)CCCCCCCC)CCCCNC(C)=O (centres unmarked) [Lipid 36] | 0 Fold Change | 0 Fold Change | 0.0009344 Fold Change | –
29 | CCCCCCC(CCCC)COC(=O)CCCCCCCN(CCCCO)CCCCCCCC(=O)OCC(CCCC)CCCCCC (centres unmarked) [Lipid 49] | 0.1952 Fold Change | 0.6215 Fold Change | 0.07252 Fold Change | –
30 | CCCCC(CC)C(=O)OCCCCCCCCCN(CCCCO)CCCCCCCCCOC(=O)C(CC)CCCC (centres unmarked) [Lipid 24] | 0 Fold Change | 0.0000246 Fold Change | 0.003111 Fold Change | –

— patent publication US20250283073A1 (ORNA THERAPEUTICS, INC., priority 2021, published 2025)
